In PMC11648822, “Lactam Truncation Yields a Dihydroquinazolinone Scaffold with Potent Antimalarial Activity that Targets PfATP4” (Chemmedchem, 2024):
Where two headings read alike, the source gives them in different places.

Key:
[1] = target: T1, PfATP4 (membranes prepared from 3D7 parasites) (Plasmodium falciparum, UniProt A0A143ZZK9); experiment: PfATP4 Na+ assay (membrane ATPase), 3D7 membranes; assay type: biochemical, P. falciparum; details: for effect on membrane ATPase activity (PfATP4): 2 μM, high-[Na+] (152 mM), cipargamin not present
T1 construct: The membranes were prepared from isolated trophozoite‐stage 3D7 parasites; endogenous in cells; host or cells: P. falciparum 3D7 trophozoites (membrane preparation)
Procedure: Figure 4 Dihydroquinazolinone analogs 14 and 36 (WJM062) inhibit Na^+‐ATPase activity in membranes prepared from isolated P. falciparum parasites, consistent with them being PfATP4 inhibitors. (A) The effects of dihydroquinazolinone compounds (2 μM), dihydroartemisinin (DHA; 50 nM; negative control) and 0.2 % v/v DMSO (solvent‐only control) on membrane ATPase activity under high‐[Na^+] conditions (152 mM Na^+) and low‐[Na^+] conditions (2 mM Na^+; stemming from the addition of 1 mM Na2ATP) in the presence and absence of the PfATP4 inhibitor cipargamin (50 nM). The membranes were prepared from isolated trophozoite‐stage 3D7 parasites. The Pi produced is expressed as a percentage of that measured in the 152 mM Na^+ Control. The data are from four independent experiments performed with different membrane preparations; the symbols show the data from individual experiments and the bars show the mean (+SEM). In individual experiments, the Pi produced in the 152 mM Na^+ Control varied from 66 to 96 nmol per mg (total) protein per min. A repeated measures ANOVA with a post hoc Tukey test was used to compare the (pre‐normalised) data for different compounds and conditions. For comparisons between different conditions for the same test compound (or for the Control), significant differences are shown with black asterisks. For comparisons between the Control and a compound under the same test condition, significant differences are shown with coloured asterisks (in this case, grey asterisks, as the only significant differences were between the control and the dihydroquinazolinone compounds in the 152 mM Na^+ condition). ***P<0.001. (B) Concentration‐dependence of the effects of dihydroquinazolinone compounds on PfATP4‐associated ATPase activity in membranes prepared from 3D7 parasites. The data are the mean (shown + or − SEM) obtained from four independent experiments performed with different membrane preparations, with the exception of the lowest and second‐lowest concentrations of the compounds, for which data are from two and three independent experiments, respectively. (C and D) Potency of dihydroquinazolinone compounds against PfATP4‐associated ATPase activity in membranes prepared from Dd2‐Polδ‐PfATP4^G358S parasites (open triangles) and their Dd2‐Polδ parents (closed triangles). The data are the mean (shown + or − SEM) from four (C) or three (D) independent experiments. In B−D, the Pi production measured in the low‐[Na^+] (2 mM) condition was subtracted from that measured in high‐[Na^+] (152 mM) in the presence of each of the different concentrations of dihydroquinazolinone compounds to calculate the PfATP4‐associated ATPase activity. The PfATP4‐associated ATPase activity is expressed as a percentage of that obtained for the high‐[Na^+] (152 mM) Control.
Membrane ATPase assays were performed using a PiColorLock Gold Phosphate Detection System (Innova Biosciences), essentially as described previously.[25] Membranes were prepared either from isolated 3D7 trophozoites or from isolated Dd2‐Polδ‐PfATP4^G358S [22] and Dd2‐Polδ trophozoites.[26]

[2] = system: P. falciparum Dd2 parental strain; experiment: PfATP4 drug resistant parasite viability assay (LDH), Dd2 parental; assay type: cell-based; details: Plasmodium falciparum, DD2, 72 h, read-out: Dd2^parental EC50 (SD)
Procedure: These assays were performed according to a previously described protocol.[16] Briefly, P. falciparum Dd2 strains treated with compound were incubated for 72 h at 37 °C. After incubating for 72 h, plates were frozen at −80 °C and then thawed at room temperature for at least 2 h. LDH activity, a surrogate for parasite growth was measured by the addition of the Malstst reagent mix, followed by incubation for 30 min and absorbance read using a ClarioStar Microplate reader at 650 nm. Values were normalized to DMSO control as a percentage and EC50 and dose response curves generated using GraphPad Prism.

[3] = Human liver microsome stability; assay type: in vitro ADME; details: human liver microsomes; read-out: HLM CLint
Description: Human liver microsome stability, rat hepatocyte stability, aqueous solubility and eLogD are platform assays conducted by TCG Lifesciences and undertaken using previously described protocols.[10]

[4] = system: P. falciparum 3D7 parasites; experiment: P. falciparum viability assay (SYBR green), 3D7; assay type: cell-based; details: Plasmodium falciparum, read-out: P. falciparum parental EC50 (SD) 3D7
Procedure: (§1) These assays were performed as previously described.[16] […] Parasites were synchronised with 5 % (w/v) sorbitol (Sigma‐Aldrich) treatments for ring stages. […] Parasites were grown in 1 % haematocrit, at 1 % and 2 % parasitaemia for P. falciparum and P. knowlesi respectively. […] Parasitaemia was measured using a SYBR DNA staining assay on a fluorometer.[33] After the incubation period, supernatants were removed and well contents were resuspended in PBS.

[5] = system: P. falciparum (Pf) 3D7 parasites; experiment: P. falciparum LDH viability assay; assay type: cell-based; details: Plasmodium falciparum, 3D7, 72 h, LDH activity at 72 h; mean and SD of 3 independent experiments
Description: This assay is a platform assay conducted at the Walter and Eliza Hall Institute and uses a protocol previously decsribed.[30, 31]

[6] = system: P. knowlesi YH1 parasites; experiment: P. knowlesi viability assay (SYBR green); assay type: cell-based; details: Plasmodium knowlesi, 48 h, read-out: P. knowlesi EC50 (SD) YH1
Procedure: as §1

T1 sequence (A0A143ZZK9 whole entry): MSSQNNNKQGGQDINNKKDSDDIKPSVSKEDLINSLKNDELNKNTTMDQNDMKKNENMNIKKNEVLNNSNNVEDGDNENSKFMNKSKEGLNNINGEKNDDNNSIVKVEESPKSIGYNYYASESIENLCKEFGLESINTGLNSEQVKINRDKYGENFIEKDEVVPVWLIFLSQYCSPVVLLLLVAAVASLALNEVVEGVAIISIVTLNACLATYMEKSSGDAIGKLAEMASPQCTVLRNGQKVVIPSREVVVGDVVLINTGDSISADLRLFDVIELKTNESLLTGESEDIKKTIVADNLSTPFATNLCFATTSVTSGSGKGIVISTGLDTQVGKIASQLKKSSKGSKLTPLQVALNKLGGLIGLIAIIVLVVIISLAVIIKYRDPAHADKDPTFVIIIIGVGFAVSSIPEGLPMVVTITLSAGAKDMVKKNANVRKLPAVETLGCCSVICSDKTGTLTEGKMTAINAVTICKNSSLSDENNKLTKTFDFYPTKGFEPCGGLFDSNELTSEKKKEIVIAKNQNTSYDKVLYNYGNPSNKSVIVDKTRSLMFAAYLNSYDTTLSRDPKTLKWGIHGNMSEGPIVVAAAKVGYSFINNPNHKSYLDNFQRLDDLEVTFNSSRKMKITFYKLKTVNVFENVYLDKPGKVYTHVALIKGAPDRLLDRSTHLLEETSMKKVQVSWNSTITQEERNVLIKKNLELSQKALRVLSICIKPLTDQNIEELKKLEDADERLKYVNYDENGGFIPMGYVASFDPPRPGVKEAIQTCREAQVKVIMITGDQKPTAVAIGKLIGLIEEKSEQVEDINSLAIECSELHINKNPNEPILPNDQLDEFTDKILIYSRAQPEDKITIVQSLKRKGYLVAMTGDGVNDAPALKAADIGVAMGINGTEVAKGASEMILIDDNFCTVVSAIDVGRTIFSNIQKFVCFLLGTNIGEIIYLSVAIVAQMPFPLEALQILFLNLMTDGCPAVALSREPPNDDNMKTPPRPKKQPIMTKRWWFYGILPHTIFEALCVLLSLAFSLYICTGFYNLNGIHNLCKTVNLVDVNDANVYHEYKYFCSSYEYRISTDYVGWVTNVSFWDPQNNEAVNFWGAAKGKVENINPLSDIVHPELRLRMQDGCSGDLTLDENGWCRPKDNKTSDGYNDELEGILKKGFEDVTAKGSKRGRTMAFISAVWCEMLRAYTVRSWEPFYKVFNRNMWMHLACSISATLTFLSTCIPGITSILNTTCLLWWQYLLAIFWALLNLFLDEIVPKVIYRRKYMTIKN

Row | Compound | EC50 [1] [nM] | effect on membrane ATPase activity (PfATP4) [1] | EC50 [2] [nM] | microsomal CLint [3] [µL/min/mg] | EC50 ([4]; 3D7, SYBR green, 72 h) [nM] | EC50 [5] [nM] | EC50 [6] [nM] | EC50 ([4]; 3D7, 72 h) [nM]
1 | CN1C(=O)c2ccc(Cl)cc2NC1(C)C(=O)Nc1cncc(Cl)c1 (stereo not shown) [Compound 14, 7‐Chloro‐N‐(5‐chloro‐3‐pyridyl)‐2,3‐dimethyl‐4‐oxo‐1H‐quinazoline‐2‐carboxamide] | 7.2 | complete inhibition | 50 | 60 | 16 | 33 | 58 | –
2 | CN1C(=O)c2ccc(-n3cccn3)cc2NC1(C)C(=O)Nc1cncc(Cl)c1 (stereo not shown) [Compound 33, N‐(5‐Chloropyridin‐3‐yl)‐2,3‐dimethyl‐4‐oxo‐7‐(1H‐pyrazol‐1‐yl)‐1,2,3,4‐tetrahydroquinazoline‐2‐carboxamide] | – | – | 73 | 37 | – | 65 | 101 | 45
3 | COc1cc(F)c2c(c1)NC(C)(C(=O)Nc1cncc(Cl)c1)N(C)C2=O (stereo not shown) [Compound 36, N‐(5‐Chloropyridin‐3‐yl)‐5‐fluoro‐7‐methoxy‐2,3‐dimethyl‐4‐oxo‐1,2,3,4‐tetrahydroquinazoline‐2‐carboxamide] | 8.6 | complete inhibition | 32 | 34 | 10 | 21 | 33 | –
